The text below walks through data of ChEMBL document CHEMBL5096243, “Selective TASK-1 Inhibitor with a Defined Structure-Activity Relationship Reduces Cancer Cell Proliferation and Viability” (J Med Chem, 2022).

Active and inactive are the calls of the source. No cut-off for these calls is given here.

For orientation: inhibition means the share of the control response that was lost under treatment. One may read the IC50 as the concentration that gives 50% inhibition.

The target in experiment [1] is T1, Potassium channel subfamily K member 3 (Homo sapiens, UniProt O14649). Briefly: Inhibition of human TASK-1 expressed in Xenopus laevis oocytes assessed as inhibition of channel current at 10 uM at +40mV holding potential by two-electrode voltage clamp assay. The experiment is classed as cell-based. The settings on record: Oocyte. On the technique in general: Two-electrode voltage clamp holds a large cell at a set potential and records current.
Target sequence in this assay (O14649 whole entry, looked up): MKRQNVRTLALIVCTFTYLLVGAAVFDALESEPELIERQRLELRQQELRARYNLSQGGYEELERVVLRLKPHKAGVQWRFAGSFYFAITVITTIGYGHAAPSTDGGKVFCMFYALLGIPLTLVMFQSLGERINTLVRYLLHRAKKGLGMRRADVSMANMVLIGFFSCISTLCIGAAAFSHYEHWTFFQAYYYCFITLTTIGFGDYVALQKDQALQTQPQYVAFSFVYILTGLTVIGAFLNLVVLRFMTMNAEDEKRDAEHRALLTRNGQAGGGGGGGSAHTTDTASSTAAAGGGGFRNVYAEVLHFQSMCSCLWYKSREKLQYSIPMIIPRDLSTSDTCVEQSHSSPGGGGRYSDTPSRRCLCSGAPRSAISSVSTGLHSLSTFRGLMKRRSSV

In experiment [2] the target is T1, Potassium channel subfamily K member 3. Briefly: Inhibition of human TASK-1 expressed in Xenopus laevis oocytes assessed as inhibition of channel current at +40mV holding potential by two-electrode voltage clamp assay. The experiment is classed as cell-based, Oocyte.
Target sequence in this assay (O14649 whole entry): as the sequence (O14649 whole entry, looked up) above
The target of experiment [3] is T2, Potassium channel subfamily K member 9 (Homo sapiens, UniProt Q9NPC2). Briefly: Inhibition of human TASK-3 expressed in Xenopus laevis oocytes assessed as inhibition of channel current at 10 uM at +40mV holding potential by two-electrode voltage clamp assay. The settings on record: Oocyte. The experiment is classed as cell-based.
Experiment [4] has as its system MCF7. Briefly: Antiproliferative activity against human MCF7 cells with shBP3 induced TASK-1 knockdown assessed as inhibition of cell proliferation at 0.148 uM incubated for 24 to 72 hrs by trypan blue exclusion method. The experiment is classed as functional, cell-based. The settings on record: time 24-72 hrs.
Experiment [5] has as its system MCF7. Briefly: Antiproliferative activity against human MCF7 cells assessed as inhibition of cell proliferation at 10 uM incubated for 4 days by MTT assay. It counts as functional. Set-up: scale not given: the % may be the effect or the level left. As to conditions: time 4 day.
The subject of experiment [6] is MCF7. Briefly: Antiproliferative activity against human MCF7 cells with wild type TASK-1 expressing GFP induced by shGFP assessed as inhibition of cell proliferation at 0.148 uM incubated for 24 to 72 hrs by trypan blue exclusion method. It counts as functional, cell-based. The settings on record: time 24-72 hrs.
Experiment [7] relates to MCF7. Briefly: Antiproliferative activity against human MCF7 cells with shBP9 induced TASK-3 knockdown assessed as inhibition of cell proliferation at 0.148 uM incubated for 48 to 72 hrs by trypan blue exclusion method. It counts as functional, cell-based. The settings on record: time 48-72 hrs.
In experiment [8] the target is T2, Potassium channel subfamily K member 9. Briefly: Inhibition of human TASK-3 expressed in Xenopus laevis oocytes assessed as inhibition of channel current at +40mV holding potential by two-electrode voltage clamp assay. It counts as cell-based, Oocyte.

T2 sequence (Q9NPC2 whole entry): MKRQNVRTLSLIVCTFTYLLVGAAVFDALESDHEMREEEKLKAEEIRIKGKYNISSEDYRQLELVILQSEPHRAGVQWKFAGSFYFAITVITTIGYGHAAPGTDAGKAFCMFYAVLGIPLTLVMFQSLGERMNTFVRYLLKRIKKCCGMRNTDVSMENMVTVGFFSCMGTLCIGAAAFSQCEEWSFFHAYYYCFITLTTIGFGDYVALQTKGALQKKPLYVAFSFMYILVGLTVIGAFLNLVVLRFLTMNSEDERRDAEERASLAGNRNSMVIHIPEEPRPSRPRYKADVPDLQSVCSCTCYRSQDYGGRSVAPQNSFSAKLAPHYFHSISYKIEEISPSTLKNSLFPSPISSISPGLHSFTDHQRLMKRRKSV

In the case of `O=C(Nc1cccc(C(=O)Nc2ccc(F)cc2)c1)c1ccccc1`, the inhibition in experiment [1] stood at 25%.
In the case of `O=C(c1ccccc1F)N1CCN(Cc2c(-c3ccc(Br)cc3)nc3ccccn23)CC1`, in experiment [2], the IC50 was determined as 9500 nM.
For the compound `O=C(Nc1cccc(C(=O)Nc2ncccc2O)c1)c1ccccc1`, the inhibition result in experiment [3] and in experiment [1] was “Active” throughout.
As to `O=C(c1cccc(OC(F)(F)F)n1)N1CCN(Cc2c(-c3ccc(Cl)cc3)nc3ccccn23)CC1`, in experiment [2], the IC50 was 7600 nM.
On to `O=C(NCc1ccccc1)c1cccc(NC(=O)c2ccccc2)c1`, for which the inhibition result in experiment [3] and in experiment [1] was “Active” in each case.
As to `COc1ccc(NC(=O)c2cccc(NC(=O)c3ccccc3)c2)cc1`, the inhibition in experiment [1] was determined as 10%.
As for `CCc1ccccc1NC(=O)c1cccc(NC(=O)c2ccccc2)c1`, the outcome with MCF7 [4], with MCF7 [6] and with MCF7 [7] was Active. Besides, the Activity with MCF7 [5] came to 45%. Moreover, the inhibition result in experiment [3] and in experiment [1] was “Active” in each case. Further, the half-maximal inhibitory concentration (IC50) in experiment [2] turned out to be 148 nM; in experiment [8] it was 1750 nM.
On to `O=C(Nc1cccc(C(=O)Nc2nccs2)c1)c1ccccc1`, for which the inhibition result in experiment [3] and in experiment [1] was “Active” in each case. Also, the IC50 in experiment [2] worked out at 388 nM; in experiment [8] it was 7170 nM.
Turning to `CCCS(=O)(=O)Nc1ccccc1C(=O)N[C@H](CC)c1ccc(OC)nc1`, the IC50 in experiment [2] was 200 nM.
